Experimental data: patent US7884117B2, “Carbonylamino pyrrolopyrazoles, potent kinase inhibitors” (Pfizer Inc., priority 2005, dated 2011)

Experiments:
[1] = biological target: T1, PAK4 kinase activity in whole cells (TR-293-KDG, modified HEK 293) (Homo sapiens, UniProt O96013); experiment: PAK4 cellular assay: sandwich ELISA of PAK4-dependent phosphorylation of GEF-H1b in TR-293-KDG cells; assay type: cell-based; settings: 3-hour exposure
T1 construct: engineered to overexpress both GEF-H1b and the kinase domain (KD) of PAK4; expressed in transfected cells; host or cells: TR-293-KDG (modified HEK 293, Trex system, Invitrogen)
T1 sequence (O96013 321-572 limits assumed): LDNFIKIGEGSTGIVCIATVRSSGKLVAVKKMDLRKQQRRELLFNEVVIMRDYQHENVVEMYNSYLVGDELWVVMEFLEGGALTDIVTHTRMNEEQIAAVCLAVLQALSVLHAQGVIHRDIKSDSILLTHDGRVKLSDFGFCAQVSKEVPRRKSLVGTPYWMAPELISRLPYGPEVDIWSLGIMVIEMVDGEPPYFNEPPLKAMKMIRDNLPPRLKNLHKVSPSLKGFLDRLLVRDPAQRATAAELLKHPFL
Experimental: A sandwich ELISA method was used to measure the PAK4 kinase activity in whole cells. The level of PAK4-dependent phosphorylation of GEF-H1b can be determined by monitoring the binding of a phosphospecific antibody to GEF-H1b. […] The KD of PAK4 is inducible in this cell line by tetracycline (Trex system, Invitrogen). […] To establish a phosphorylation event on GEF-HL, cells are induced with doxycycline to express the PAK4 KD. […] Candidate substance effect is measured as the ability to block this phosphorylation event.
ELISA plate was prepared by pre-coating the plates with a capture antibody (α-HA-tag mouse monoclonal antibody), blocked with BSA, and washed in 0.1% tween 20 in tris-buffered saline (TBST). […] Cells were then lysed with a modified RIPA buffer supplemented with protease inhibitors. […] Between all subsequent steps plates were washed 4 times with TBST. Detection antibody (recognizing the phospho-specific eptitope on GEF-H1b) was added for 1 hour, followed by addition of an enzyme linked goat α-rabbit secondary antibody for 45 minutes. […] EC50 values were calculated by sigmoid curve fitting using a four-parameter analysis.

[2] = biological target: T2, PAK4 Kinase domain (PAK4 KD) (Homo sapiens, UniProt O96013); experiment: PAK4 kinase domain enzymatic assay (PK/LDH-coupled, Ki); assay type: biochemical; settings: PAK4 Kinase Domain
T2 construct: Cloning, expression, and purification of recombinant PAK4 Kinase domain (PAK4 KD); His tag (pET28a(+)/pET24a(+), Ni-NTA purification) (N, cleaved yes); GST (pGST4.5, glutathione column) (N, cleaved yes); made in house; host or cells: E. coli BL21(DE3)
T2 sequence (O96013 321-572 limits assumed): as above

SMILES	EC50 [1]	Ki [2]
CN(C)C[C@@H](NC(=O)N1Cc2c(NC(=O)c3ccc(C(F)(F)F)cc3)n[nH]c2C1(C)C)c1ccccc1 [Example 50, N-[(1S)-2-(dimethylamino)-1-phenylethyl]-6,6-dimethyl-3-{[4-(trifluoromethyl)benzoyl]amino}-4,6-dihydropyrrolo[3,4-c]pyrazole-5(1H)-carboxamide]	335 nM	33.8 nM
CC(=O)Nc1n[nH]c2c1CN(C(=O)N[C@H](CN(C)C)c1ccccc1)C2(C)C [Example 52, 3-(acetylamino)-N-[(1S)-2-(dimethylamino)-1-phenylethyl]-6,6-dimethyl-4,6-dihydropyrrolo[3,4-c]pyrazole-5(1H)-carboxamide]	242 nM	354 nM
CN(C)C[C@@H](NC(=O)N1Cc2c(NC(=O)Cc3ccc(F)cc3)n[nH]c2C1(C)C)c1ccccc1 [Example 54, N-[(1S)-2-(dimethylamino)-1-phenylethyl]-3-{[(4-fluorophenyl)acetyl]amino}-6,6-dimethyl-4,6-dihydropyrrolo[3,4-c]pyrazole-5(1H)-carboxamide]	353 nM	41 nM
CN(C)C[C@@H](OC(=O)N1Cc2c(NC(=O)c3cn(C)cn3)n[nH]c2C1(C)C)c1ccccc1 [Example 69, (1S)-2-(dimethylamino)-1-phenylethyl 6,6-dimethyl-3-{[(1-methyl-1H-imidazol-4-yl)carbonyl]amino}-4,6-dihydropyrrolo[3,4-c]pyrazole-5(1H)-carboxylate]	226 nM	149 nM
CN(C)C[C@@H](NC(=O)N1Cc2c(NC(=O)c3cscn3)n[nH]c2C1(C)C)c1ccccc1 [Example 72, N-[(1S)-2-(dimethylamino)-1-phenylethyl]-6,6-dimethyl-3-[(1,3-thiazol-4-ylcarbonyl)amino]-4,6-dihydropyrrolo[3,4-c]pyrazole-5(1H)-carboxamide]	362 nM	93.8 nM
C[C@@H](CN(C)C)OC(=O)N1Cc2c(NC(=O)c3ccccc3)n[nH]c2C1(C)C [Example 73, (1S)-2-(dimethylamino)-1-methylethyl 3-(benzoylamino)-6,6-dimethyl-4,6-dihydropyrrolo [3,4-c]pyrazole-5(1H)-carboxylate]	200 nM	354 nM
COC[C@@H](CN(C)C)OC(=O)N1Cc2c(NC(=O)c3ccc(F)cc3)n[nH]c2C1(C)C [Example 77, (1R)-2-(dimethylamino)-1-(methoxymethyl)ethyl 3-[(4-fluorobenzoyl)amino]-6,6-dimethyl-4,6-dihydropyrrolo[3,4-c]pyrazole-5(1H)-carboxylate]	167 nM	345 nM
CC(C)C[C@@H](CN(C)C)OC(=O)N1Cc2c(NC(=O)c3ccc(C(F)(F)F)cc3)n[nH]c2C1(C)C [Example 79, (1S)-1-[(dimethylamino)methyl]-3-methylbutyl 6,6-dimethyl-3-{[4-(trifluoromethyl)benzoyl]amino}-4,6-dihydropyrrolo[3,4-c]pyrazole-5(1H)-carboxylate]	2120 nM	96 nM

The next molecules have a lower EC50 [1] than those just listed; values first:

EC50 [1]	Ki [2]	SMILES
148 nM	13.6 nM	COc1ccc(CC(=O)Nc2n[nH]c3c2CN(C(=O)N[C@H](CN(C)C)c2ccccc2)C3(C)C)cc1 [Example 55, N-[(1S)-2-(dimethylamino)-1-phenylethyl]-3-{[(4-methoxyphenyl)acetyl]amino}-6,6-dimethyl-4,6-dihydropyrrolo[3,4-c]pyrazole-5(1H)-carboxamide]
115 nM	73.1 nM	CN(C)C[C@@H](OC(=O)N1Cc2c(NC(=O)c3ccc(F)cc3)n[nH]c2C1(C)C)C1CCCCC1 [Example 75, (1S)-1-cyclohexyl-2-(dimethylamino)ethyl 3-[(4-fluorobenzoyl)amino]-6,6-dimethyl-4,6-dihydropyrrolo[3,4-c]pyrazole-5(1H)-carboxylate]
104 nM	240 nM	CN(C)C[C@@H](OC(=O)N1Cc2c(NC(=O)c3cccc4c3OCC4)n[nH]c2C1(C)C)c1ccccc1 [Example 81, (1S)-2-(dimethylamino)-1-phenylethyl 3-[(2,3-dihydro-1-benzofuran-7-ylcarbonyl)amino]-6,6-dimethyl-4,6-dihydropyrrolo[3,4-c]pyrazole-5(1H)-carboxylate]
84.1 nM	101 nM	CN(C)C[C@@H](NC(=O)N1Cc2c(n[nH]c2NC(=O)c2nccs2)C1(C)C)c1ccccc1 [Example 71, N-[(1S)-2-(dimethylamino)-1-phenylethyl]-6,6-dimethyl-3-[(1,3-thiazol-2-ylcarbonyl)amino]-4,6-dihydropyrrolo[3,4-c]pyrazole-5(1H)-carboxamide]
37.1 nM	6.9 nM	CN(C)C[C@@H](NC(=O)N1Cc2c(NC(=O)[C@@H]3C[C@H]3c3ccccc3)n[nH]c2C1(C)C)c1ccccc1 [Example 56, N-[(1S)-2-(dimethylamino)-1-phenylethyl]-6,6-dimethyl-3-({[trans-2-phenylcyclopropyl]carbonyl}amino)-4,6-dihydropyrrolo[3,4-c]pyrazole-5(1H)-carboxamide]
36.4 nM	98.3 nM	CN(C)C[C@@H](NC(=O)N1Cc2c(NC(=O)c3ccccc3F)n[nH]c2C1(C)C)c1ccccc1 [Example 48, N-[(1S)-2-(dimethylamino)-1-phenylethyl]-3-[(2-fluorobenzoyl)amino]-6,6-dimethyl-4,6-dihydropyrrolo[3,4-c]pyrazole-5(1H)-carboxamide]
34.1 nM	48.2 nM	CN(C)C[C@@H](OC(=O)N1Cc2c(NC(=O)c3cscn3)n[nH]c2C1(C)C)c1ccccc1 [Example 68, (1S)-2-(dimethylamino)-1-phenylethyl 6,6-dimethyl-3-[(1,3-thiazol-4-ylcarbonyl)amino]-4,6-dihydropyrrolo[3,4-c]pyrazole-5(1H)-carboxylate]
28 nM	210 nM	CN(C)C[C@@H](NC(=O)N1Cc2c(NC(=O)C3CCC3)n[nH]c2C1(C)C)c1ccccc1 [Example 53, 3-[(cyclobutylcarbonyl)amino]-N-[(1S)-2-(dimethylamino)-1-phenylethyl]-6,6-dimethyl-4,6-dihydropyrrolo[3,4-c]pyrazole-5(1H)-carboxamide]
20.3 nM	118 nM	CN(C)C[C@@H](NC(=O)N1Cc2c(NC(=O)c3ccccn3)n[nH]c2C1(C)C)c1ccccc1 [Example 51, N-[(1S)-2-(dimethylamino)-1-phenylethyl]-6,6-dimethyl-3-[(pyridin-2-ylcarbonyl)amino]-4,6-dihydropyrrolo[3,4-c]pyrazole-5(1H)-carboxamide]
16 nM	11.3 nM	CN(C)C[C@@H](NC(=O)N1Cc2c(NC(=O)c3cccs3)n[nH]c2C1(C)C)c1ccccc1 [Example 57, N-[(1S)-2-(dimethylamino)-1-phenylethyl]-6,6-dimethyl-3-[(2-thienylcarbonyl)amino]-4,6-dihydropyrrolo[3,4-c]pyrazole-5(1H)-carboxamide]
12 nM	756 nM	CC(C)C[C@@H](CN(C)C)OC(=O)N1Cc2c(NC(=O)C3CCC3)n[nH]c2C1(C)C [Example 80, (S)-1-[(dimethylamino)methyl]-3-methylbutyl 3-[(cyclobutylcarbonyl)amino]-6,6-dimethyl-4,6-dihydropyrrolo[3,4-c]pyrazole-5(1H)-carboxylate]
